Laboratory results as given in patent US20240415825A1, “COMPOUNDS FOR THE TREATMENT OF MALARIA” (FUNDACIÓ INSTITUT DE BIOENGINYERIA DE CATALUNYA, priority 2021, published 2024).
Like-named read-outs stand apart in the source and are kept apart here.

Tests used:
[1] = system: P. falciparum 3D7 strain; experiment: P. falciparum growth inhibition assay (3D7 strain); format: cell-based, Plasmodium falciparum; details: for IC50: Plasmodium falciparum, 3D7 strain
Protocol: After the synchronization process, a new culture at 1.5% parasitemia and 2% hematocrit was established and 150 μL aliquots of it were transferred to 96-well plates.
The required amounts of peptides, antimalarial compounds and dyes were added in each well at different concentrations and in triplicates. A positive growth control of untreated parasites and a negative growth control of parasites treated with a lethal dose of chloroquine (1 μM) were also included.
Parasites were grown for 48 h, a complete replication cycle, in standard culturing conditions (5% O2, 5% CO2, and 90% N2 at 37° C.). After the incubation period, 3 μL of culture from each well were mixed with 197 μL of PBS containing 0.1 μM Syto 11 (Thermo Fisher Scientific Inc), to obtain a final concentration of ca. 1-10×10^6 cells/ml.
Parasitemia was assessed by flow cytometry using a LSRFortessa flow cytometer (BD Biosciences, San Jose, CA, USA) set up with the 4 lasers, 20 parameters standard configuration. The single-cell population was selected on a forward-side scatter scattergram.
Growth inhibition was calculated taking as reference values both the growth rate of the untreated culture and the growth rate of the culture treated with chloroquine.

[2] = system: P. falciparum ring or trophozoite stage cultures; experiment: Stage of growth inhibition analysis; format: cell-based, Plasmodium falciparum; details: added to ring stages at its IC80
Protocol: For stage of growth inhibition analysis, P. falciparum cultures were synchronized at ring or trophozoite stages by repeated treatment with 5% sorbitol or 70% Percoll, respectively. Half of each culture remained untreated and the other half was treated with the IC80 of AID-X-2020. At different time points, culture samples were stained with Giemsa and the number of rings, early and mature trophozoites and schizonts was counted by microscopic examination of at least 100 pRBCs for each sample. Pictures were taken with a Nikon Eclipse 50i microscope equipped with a DS-Fi1 camera (Nikon).

[3] = biological target: T1, Aβ40 (Homo sapiens, UniProt P05067); experiment: In vitro Aβ40 aggregation (ThT fluorescence, TEM); format: biochemical; details: 25 μM Aβ40
T1 construct: Amyloid-β peptide fragment 1-40 (Aβ40); purchased GenScript
Protocol: For the in vitro analysis of As peptide fragment 1-40 (Aβ40) aggregation, 1 mg of Aβ40 (GenScript) was dissolved in 500 μL of 1,1,1,3,3,3-hexafluoro-2-propanol (HFIP, Fluka) under vigorous stirring for 1 h and sonicated for 30 min in a sonication bath. Afterwards, the solution was stirred for 1 h and maintained at 4° C. for 30 min. Aliquots were prepared, HFIP was evaporated under a nitrogen stream for a few seconds and the peptide was stored at −20° C. […] The final sample always contained less than 5% DMSO to avoid interference of this solvent on Aβ40 amyloid fibril formation. Finally, ThT treatment was performed as described above.
25 μM ThT was added to each sample and fluorescence was measured by exciting samples at 440 nm and recording the emission from 465 nm to 600 nm. A blank measurement of each sample was done before adding ThT.
A carbon-coated copper grid was deposited on top of a 50-μL drop of each solution for 30 min. Then, the excess liquid was removed with filter paper and the grid was placed on top of a water drop for 30 s and finally negatively stained for 2 min with 20 μL of 2% uranyl acetate. Samples were observed using a JEM 1010 transmission electron microscope (JEOL Ltd., Japan). Images were acquired using a CCD Orius camera (Gatan, Inc., USA).

[4] = system: P. falciparum cultures; experiment: Combination assay of AID-X-2020 and artemisinin (isobologram, FIC); format: cell-based, Plasmodium falciparum; details: combined with artemisinin in different ratios
Protocol: For assays of AID-X-2020 and artemisinin, serial dilutions of both compounds were prepared at different concentration ratios (1:0, 0:1, 1:1, 1:2, 2:1, 1:5 and 5:1).
To assess the synergistic effect of AID-X-2020 and artemisinin, IC50 values for each individual compound in the mixtures were calculated as described above and plotted in an isobologram (“x” value=AID-X-2020 IC50 and “y” value=artemisinin IC50). Fractional inhibitory concentration (FIC) values were calculated by dividing the IC50 of one of the compounds in the mixture by the IC50 of the same compound in the 1:0 or 0:1 ratio mixture.

[5] = In vivo toxicity assay in mice; parameters: species or system BALB/c mice
Protocol: BALB/c female and male mice (Janvier Laboratories) were maintained with unlimited access to food and water under standard environmental conditions (20-24° C. and 12/12 h light/dark cycle). […] First, the lowest dose was intravenously injected to one female and one male mice. An oxygen stream of 4% isoflurane was used to anesthetize the mice, which were then maintained during the whole procedure (less than 3 minutes) with 2.5% isoflurane.
After the administration, mice were observed and different parameters related to their behavior (lethargy, motility alterations, seizures, coma, automutilation, aggressiveness, vocalizations, stereotyped movements) and physical conditions (pain, respiratory disturbances, tachycardia or bradycardia, dehydration, hair loss, body weight loss, dermatitis, bad hygiene, pruritus, tearing) were followed. If after 48 h no deleterious effects were observed, the following dose was administered to two other male and female mice.

[6] = system: P. falciparum W2 strain; experiment: Growth inhibition, chloroquine-resistant W2 strain; format: cell-based; details: Plasmodium falciparum
Description: (§1) P. falciparum parasites of chloroquine-sensitive (3D7 strain) and chloroquine- and artemisinin-resistant strains were processed as described in section 1.1.3 of EXAMPLE 1.
(§2) In particular, the P. falciparum resistant strains were the following: (1) strain W2 MRA-157 (BEI Resources, managed by ATCC) which is chloroquine-resistant; (2) strains 3D7 harboring the K13 mutations associated to artemisinin resistance, either M5791 or R561H (both provided by Dr. David A. Fidock and referenced in Stokes, B. H. et al., 2021); (3) Cam 3.11 strain which is chloroquine and sulfadoxine/pyrimethamine-resistant; and (4) Cam 3.11 strain modified to carry K13 mutations associated to artemisinin-resistant strains, either R561H or R539T, therefore being multiresistant strains. All Cam 3.11 strains (3) and (4) were provided by Dr. David A. Fidock and are referenced in Straimer, J. et al., 2015 and Stokes, B. H. et al., 2021.
(§3) Then, the required amount of AID-X-2020 was added to each well at different concentrations (0.0001, 0.001, 0.01, 1 and 10 μM) and triplicates.

[7] = system: artemisinin-resistant P. falciparum strains (3D7 and Cam 3.11 with K13 mutations); experiment: Growth inhibition, artemisinin-resistant strains; format: cell-based; details: Plasmodium falciparum, 3D7, read-out: IC50 in artemisinin-resistant strains
Description: as §1, §2, §3

[8] = system: P. falciparum NF54-gexp02-Tom strain gametocytes; experiment: microbe, parasite or virus in culture; format: cell-based; details: Plasmodium falciparum, NF54, 48 h
Protocol: Cultures of the P. falciparum NF54-gexp02-Tom strain (developed and authenticated by Portugaliza, H. P. et al., 2019 and kindly provided by Prof. Alfred Cortes), were maintained in standard conditions in RPMI medium supplemented with 0.5% Albumax II and 2 mM choline, synchronized in ring stages with sorbitol lysis, and diluted to 2% parasitemia. To trigger sexual conversion, choline was removed from the medium and cultures were maintained in the same conditions for 48 h after synchronization (cycle 0). In the next cycle (cycle 1), parasites were treated with 50 mM N-acetylglucosamine (GlcNac) in order to kill asexual parasites, and maintained in RPMI supplemented with 10% human serum. Medium was refreshed daily and GlcNac was kept during 4 days.
Controls of untreated parasites as well as of parasites treated with a lethal dose of chloroquine were prepared. Gametocytemia was monitored daily by light microscopy until the majority of parasites (˜90%) could be identified as stage V gametocytes. At that point, Giemsa smears of each well were prepared and mature gametocytes were manually counted (10,000 cells were counted for each replica by two investigators blinded to group assignment). […] Afterwards, the culture was treated for 48 h with the drugs and the gametocytemia determined as above.

T1 sequence (P05067 672-711 limits assumed, species assumed): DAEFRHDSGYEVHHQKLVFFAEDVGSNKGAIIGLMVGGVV

CCN(CC)c1ccc(/C=C/c2cc[n+](CCCCCCCCCC[n+]3ccc(/C=C/c4ccc(N(CC)CC)cc4)c(C)c3)cc2C)cc1 [AID-X-2020, 1,1′-(decane-1,10-diyl)bis{4-[(E)-4-(diethylamino)styryl]-3-methylpyridin-1-ium} dibromide]
in vitro IC10 ([1]; P. falciparum cultures): 27 nM
IC50 ([1]; 48 h, Table 2, read-out: IC50 in 3D7 strain (μM) ± SEM): 0.09 ± 0.02 µM
IC50 ([1]; Example 8, read-out: IC50 in 3D7 strain): 0.09 µM
IC50 ([1]; read-out: IC50 in P. falciparum in vitro cultures): 0.09 ± 0.002 µM
stage of growth arrest [2]: arrested the life cycle of the pathogen at trophozoite stage
inhibition of the aggregation of Aβ40 [3]: strong inhibitor
ZFIC values [4]: higher than 1.5
dose at which adverse effects start ([5]; female mice): 10 mg/kg
dose at which toxicity starts being observed ([5]; male mice): 17 mg/kg
IC50 [6]: 90 ± 1 nM
IC50 [7]: 90 to 160 nM
IC50 ([8]; read-out: IC50 on early gametocytes): 95 ± 3 nM
IC50 ([8]; read-out: IC50 on mature stage V (late) gametocytes): 103 ± 3 nM
